{
  "source": "patent US9849185B2",
  "about": "“Benzoic acid, benzoic acid derivatives and heteroaryl carboxylic acid conjugates of hydromorphone, prodrugs, methods of making and use thereof” (priority 2011, dated 2017)",
  "key": {"GI transit": {"tested_on": "GI transit", "test": "Validated rat gastrointestinal (GI) motility study", "conditions": "oral, equimolar dose, result in words"}, "[1]": {"test": "Intranasal pharmacokinetic study in rats", "conditions": "rat, equimolar to 2.0 mg/kg hydromorphone", "protocol": "The intranasal studies were performed at doses equimolar to 2.0 mg/kg of hydromorphone."}, "[2]": {"test": "Intravenous pharmacokinetic study in rats", "conditions": "rat, 0.20 mg/kg"}, "[3]": {"test": "Oral pharmacokinetic study in rats (released hydromorphone in plasma)", "conditions": "rat; for AUC of hydromorphone released from the conjugate / Cmax of hydromorphone released from the conjugate / Tmax of hydromorphone released from the conjugate: oral solution, dose equimolar to 2.0 mg/kg hydromorphone, plasma"}, "[4]": {"test": "Tamper resistance study: extraction methods, hydromorphone release by HPLC", "conditions": "for amount of hydromorphone released from 3,6-di-aspirin-HM: %-AUC by HPLC", "text": "Certain prodrug conjugates of the present technology were exposed to various commonly applied “extraction methods” to test for hydrolysis and/or decomposition of the prodrug."}, "[5]": {"conditions": "oral, equimolar to 2.0 mg/kg hydromorphone, result in words"}},
  "data": [
    {"molecule": "CC(=O)Oc1ccccc1C(=O)OC1=CC[C@H]2[C@H]3Cc4ccc(OC(=O)c5ccccc5OC(C)=O)c5c4[C@@]2(CCN3C)[C@H]1O5", "note": "[3,6-di-Aspirin-HM, 3,6-di-aspirin-hydromorphone]", "values": [
      {"measurement": "reduction of GI transit compared to hydromorphone hydrochloride", "setting": "GI transit", "result": "reduces GI transit to a lesser extent than hydromorphone hydrochloride"},
      {"measurement": "AUC as % of unconjugated hydromorphone", "setting": "[1]", "result": 17, "unit": "%"},
      {"measurement": "Cmax as % of unconjugated hydromorphone", "setting": "[1]", "result": 20, "unit": "%"},
      {"measurement": "plasma concentrations of hydromorphone after intranasal administration compared to the parent drug", "setting": "[1]; result in words", "result": "significantly reduced"},
      {"measurement": "AUC as % of unconjugated hydromorphone", "setting": "[2]", "result": 6, "unit": "%"},
      {"measurement": "Cmax as % of unconjugated hydromorphone", "setting": "[2]", "result": 3, "unit": "%"},
      {"measurement": "plasma concentrations of hydromorphone after intravenous administration compared to unconjugated hydromorphone", "setting": "[2]; result in words", "result": "significantly lower"},
      {"measurement": "AUC of hydromorphone released from the conjugate", "setting": "[3]", "result": 82.4, "unit": "ng·h/mL"},
      {"measurement": "Cmax of hydromorphone released from the conjugate", "setting": "[3]", "result": 36.5, "unit": "ng/mL"},
      {"measurement": "Tmax of hydromorphone released from the conjugate", "setting": "[3]", "result": 15, "unit": "min"},
      {"measurement": "hydromorphone plasma concentrations compared to unconjugated hydromorphone", "setting": "[3]; [5]", "result": "comparable"},
      {"measurement": "amount of hydromorphone released from 3,6-di-aspirin-HM", "setting": "[4]; 1N HCl, ambient temperature, 30 min.", "result": 0, "unit": "%"},
      {"measurement": "amount of hydromorphone released from 3,6-di-aspirin-HM", "setting": "[4]; 1N HCl, ambient temperature, 60 min.", "result": 0, "unit": "%"},
      {"measurement": "amount of hydromorphone released from 3,6-di-aspirin-HM", "setting": "[4]; 1N NaOH, ambient temperature, 30 min.", "result": 1, "unit": "%"},
      {"measurement": "amount of hydromorphone released from 3,6-di-aspirin-HM", "setting": "[4]; 1N NaOH, ambient temperature, 60 min.", "result": 1, "unit": "%"},
      {"measurement": "amount of hydromorphone released from 3,6-di-aspirin-HM", "setting": "[4]; 4N NaOH, ambient temperature, 30 min.", "result": 1, "unit": "%"},
      {"measurement": "amount of hydromorphone released from 3,6-di-aspirin-HM", "setting": "[4]; 4N NaOH, ambient temperature, 60 min.", "result": 6, "unit": "%"},
      {"measurement": "amount of hydromorphone released from 3,6-di-aspirin-HM", "setting": "[4]; 5% Acetic acid, ambient temperature, 30 min.", "result": 0, "unit": "%"},
      {"measurement": "amount of hydromorphone released from 3,6-di-aspirin-HM", "setting": "[4]; 5% Acetic acid, ambient temperature, 60 min.", "result": 0, "unit": "%"},
      {"measurement": "amount of hydromorphone released from 3,6-di-aspirin-HM", "setting": "[4]; Glacial acetic acid, ambient temperature, 30 min.", "result": 0, "unit": "%"},
      {"measurement": "amount of hydromorphone released from 3,6-di-aspirin-HM", "setting": "[4]; Glacial acetic acid, ambient temperature, 60 min.", "result": 0, "unit": "%"},
      {"measurement": "amount of hydromorphone released from 3,6-di-aspirin-HM", "setting": "[4]; Sat. NaHCO3, ambient temperature, 30 min.", "result": 0, "unit": "%"},
      {"measurement": "amount of hydromorphone released from 3,6-di-aspirin-HM", "setting": "[4]; Sat. NaHCO3, ambient temperature, 60 min.", "result": 0, "unit": "%"},
      {"measurement": "amount of hydromorphone released from 3,6-di-aspirin-HM", "setting": "[4]; Water, ambient temperature, 30 min.", "result": 0, "unit": "%"},
      {"measurement": "amount of hydromorphone released from 3,6-di-aspirin-HM", "setting": "[4]; Water, ambient temperature, 60 min.", "result": 0, "unit": "%"},
      {"measurement": "chemical stability under commonly applied \"extraction methods\"", "setting": "[4]; result in words", "result": "chemically stable"},
      {"measurement": "outcome of solvent extraction from formulation", "setting": "[4]; result in words", "result": "only yielded inactive prodrug"}
    ]},
    {"molecule": "CN1CCC23c4c5ccc(OC(=O)c6ccccc6)c4OC2C(OC(=O)c2ccccc2)=CCC3C1C5", "note": "(stereo not drawn) [3,6-di-Benzoate-HM, 3,6-di-benzoate-hydromorphone]", "values": [
      {"measurement": "AUC of hydromorphone released from the conjugate", "setting": "[3]", "result": 30.1, "unit": "ng·h/mL"},
      {"measurement": "Cmax of hydromorphone released from the conjugate", "setting": "[3]", "result": 11.3, "unit": "ng/mL"},
      {"measurement": "Tmax of hydromorphone released from the conjugate", "setting": "[3]", "result": 15, "unit": "min"},
      {"measurement": "hydromorphone plasma concentrations compared to unconjugated hydromorphone", "setting": "[3]; [5]", "result": "lower at all time points"}
    ]},
    {"molecule": "CN1CCC23c4c5ccc(OC(=O)c6ccccc6)c4OC2C(=O)CCC3C1C5", "note": "(stereo not drawn) [3-Benzoate-HM, 3-benzoate-hydromorphone]", "values": [
      {"measurement": "AUC of hydromorphone released from the conjugate", "setting": "[3]", "result": 41.2, "unit": "ng·h/mL"},
      {"measurement": "Cmax of hydromorphone released from the conjugate", "setting": "[3]", "result": 19.8, "unit": "ng/mL"},
      {"measurement": "Tmax of hydromorphone released from the conjugate", "setting": "[3]", "result": 30, "unit": "min"},
      {"measurement": "hydromorphone plasma concentrations compared to unconjugated hydromorphone", "setting": "[3]; [5]", "result": "lower at all time points"}
    ]},
    {"molecule": "CN1CCC23c4c5ccc(OC(=O)C=Cc6ccccc6)c4OC2C(=O)CCC3C1C5", "note": "(stereo not drawn) [3-Cinnamate-HM, 3-cinnamate-hydromorphone]", "values": [
      {"measurement": "AUC of hydromorphone released from the conjugate", "setting": "[3]", "result": 25.3, "unit": "ng·h/mL"},
      {"measurement": "Cmax of hydromorphone released from the conjugate", "setting": "[3]", "result": 28.3, "unit": "ng/mL"},
      {"measurement": "Tmax of hydromorphone released from the conjugate", "setting": "[3]", "result": 15, "unit": "min"},
      {"measurement": "hydromorphone plasma concentrations compared to unconjugated hydromorphone", "setting": "[3]; [5]", "result": "lower at all time points"}
    ]},
    {"molecule": "CN1CC[C@]23c4c5ccc(OC(=O)c6ccccc6Nc6ccccc6)c4OC2C(=O)CC[C@H]3[C@H]1C5", "note": "(stereo partly drawn) [3-Fenamate-HM, 3-fenamate-hydromorphone]", "values": [
      {"measurement": "AUC of hydromorphone released from the conjugate", "setting": "[3]", "result": 44.6, "unit": "ng·h/mL"},
      {"measurement": "Cmax of hydromorphone released from the conjugate", "setting": "[3]", "result": 30.6, "unit": "ng/mL"},
      {"measurement": "Tmax of hydromorphone released from the conjugate", "setting": "[3]", "result": 15, "unit": "min"},
      {"measurement": "hydromorphone plasma concentrations compared to unconjugated hydromorphone", "setting": "[3]; [5]", "result": "elevated for the first hour after oral administration and then decreased quickly"}
    ]},
    {"molecule": "CN1CCC23c4c5ccc(OC(=O)c6ccncc6)c4OC2C(=O)CCC3C1C5", "note": "(stereo not drawn) [3-Isoniacin-HM, 3-isoniacin-hydromorphone]", "values": [
      {"measurement": "AUC of hydromorphone released from the conjugate", "setting": "[3]", "result": 25.1, "unit": "ng·h/mL"},
      {"measurement": "Cmax of hydromorphone released from the conjugate", "setting": "[3]", "result": 18.5, "unit": "ng/mL"},
      {"measurement": "Tmax of hydromorphone released from the conjugate", "setting": "[3]", "result": 15, "unit": "min"},
      {"measurement": "Cmax value of released hydromorphone compared to unconjugated hydromorphone", "setting": "[3]; [5]", "result": "lower"}
    ]},
    {"molecule": "CN1CCC23c4c5ccc(OC(=O)c6ccc(O)cc6)c4OC2C(=O)CCC3C1C5", "note": "(stereo not drawn) [3-p-Salicylic-HM, 3-p-salicylic-hydromorphone]", "values": [
      {"measurement": "AUC of hydromorphone released from the conjugate", "setting": "[3]", "result": 31.4, "unit": "ng·h/mL"},
      {"measurement": "Cmax of hydromorphone released from the conjugate", "setting": "[3]", "result": 17.2, "unit": "ng/mL"},
      {"measurement": "Tmax of hydromorphone released from the conjugate", "setting": "[3]", "result": 15, "unit": "min"},
      {"measurement": "hydromorphone plasma concentrations compared to unconjugated hydromorphone", "setting": "[3]; [5]", "result": "lower at all time points"}
    ]},
    {"molecule": "COc1ccc2cc(C(C)C(=O)OC3=CCC4C5Cc6ccc(O)c7c6C4(CCN5C)C3O7)ccc2c1", "note": "(stereo not drawn) [6-Naproxen-HM, 6-naproxen-hydromorphone]", "values": [
      {"measurement": "AUC of hydromorphone released from the conjugate", "setting": "[3]", "result": 31.6, "unit": "ng·h/mL"},
      {"measurement": "Cmax of hydromorphone released from the conjugate", "setting": "[3]", "result": 19.1, "unit": "ng/mL"},
      {"measurement": "Tmax of hydromorphone released from the conjugate", "setting": "[3]", "result": 15, "unit": "min"},
      {"measurement": "overall exposure after oral administration compared to the parent drug", "setting": "[3]; [5]", "result": "reduced significantly"}
    ]},
    {"molecule": "CN1CCC23c4c5ccc(O)c4OC2C(OC(=O)c2ccccc2O)=CCC3C1C5", "note": "(stereo not drawn) [6-o-Salicylate-HM, 6-o-salicylate-hydromorphone]", "values": [
      {"measurement": "AUC of hydromorphone released from the conjugate", "setting": "[3]", "result": 33.3, "unit": "ng·h/mL"},
      {"measurement": "Cmax of hydromorphone released from the conjugate", "setting": "[3]", "result": 14.1, "unit": "ng/mL"},
      {"measurement": "Tmax of hydromorphone released from the conjugate", "setting": "[3]", "result": 15, "unit": "min"},
      {"measurement": "Cmax value of released hydromorphone compared to unconjugated hydromorphone", "setting": "[3]; [5]", "result": "lower"}
    ]},
    {"molecule": "CC(=O)Oc1ccccc1C(=O)Oc1ccc2c3c1OC1C(=O)CCC4C(C2)N(C)CCC314", "note": "(stereo not drawn) [Conjugate 3-Aspirin-HM, 3-aspirin-hydromorphone]", "values": [
      {"measurement": "AUC of hydromorphone released from the conjugate", "setting": "[3]", "result": 55.9, "unit": "ng·h/mL"},
      {"measurement": "Cmax of hydromorphone released from the conjugate", "setting": "[3]", "result": 44.3, "unit": "ng/mL"},
      {"measurement": "Tmax of hydromorphone released from the conjugate", "setting": "[3]", "result": 15, "unit": "min"},
      {"measurement": "hydromorphone plasma concentrations compared to unconjugated hydromorphone", "setting": "[3]; [5]", "result": "comparable"}
    ]}
  ]
}
